In one series the target is CYP2D6 (Homo sapiens, UniProt P10635). Nature of the series: CYP inhibition CYP2D6 (CEREP). In kind it is in vitro ADME. To be noted: human, recombinant CYP2D6, human recombinant CYP, single concentration (typically 10 μM); read-out: CYP 2D6 (% inhibition of Control). Here is the method: All the assays were conducted at CEREP (CEREP, France and USA). Metabolic compound stability was tested in human (CEREP, Ref 607) and mouse (CEREP, Ref: 806) microsomes. Inhibition of human drug-metabolizing cytochromes P450 was tested on the five most commonly responsible enzymes of metabolism of xenobiotics, CYP1A2 (CEREP, Ref 389), CYP2C9 (CEREP, Ref 412), CYP2C19 (CEREP, Ref 390), CYP2D6 (CEREP, Ref 1338) and CYP3A4 (CEREP, Ref 391).
Briefly, CEREP's CYP inhibition assay uses traditional probe substrates, which are specific to individual CYP isoforms. 3-cyano-7-ethoxycoumarin is mainly catalyzed by CYP1A2 and CYP2C19, 3-[2-(N,N-diethyl-N-methylammonium)ethyl]-7-methoxy-4-methylcoumarin for CYP2C9 and CYP2D6 and finally, 7-benzyloxy-4-trifluoromethylcoumarin is pathway catalyzed predominantly by CYP3A4. The inhibition assays were performed with human recombinant CYP isoforms preparations. HPLC MS/MS methods are used to detect metabolites in these assays. Compounds were tested at single concentrations (typically 10 μM) and data were expressed as percent of control inhibition.

Series [1] concerns the target T1, RORγt ligand-binding domain (RORγt-LBD) (Homo sapiens, UniProt P51449).
T1 construct: 20 nM recombinantly expressed RORγ-LBD fused to GST
T1 sequence (P51449 269-508 limits assumed): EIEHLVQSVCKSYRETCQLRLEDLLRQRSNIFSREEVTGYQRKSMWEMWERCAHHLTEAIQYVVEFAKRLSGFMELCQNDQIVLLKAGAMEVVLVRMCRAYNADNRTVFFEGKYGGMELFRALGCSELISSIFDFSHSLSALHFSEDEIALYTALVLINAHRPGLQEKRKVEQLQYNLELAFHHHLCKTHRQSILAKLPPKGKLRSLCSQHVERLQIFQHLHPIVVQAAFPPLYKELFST
Nature of the series: Time-resolved FRET (TR-FRET) RORγt coactivator assay. In kind it is biochemical. To be noted: GST-RORγ-LBD, biotinylated RIP140 peptide, coactivator displacement. On the technique in general: TR-FRET usually uses a lanthanide donor and a delayed reading to cut background.

Chain of CYP2D6 (P10635 whole entry, canonical isoform): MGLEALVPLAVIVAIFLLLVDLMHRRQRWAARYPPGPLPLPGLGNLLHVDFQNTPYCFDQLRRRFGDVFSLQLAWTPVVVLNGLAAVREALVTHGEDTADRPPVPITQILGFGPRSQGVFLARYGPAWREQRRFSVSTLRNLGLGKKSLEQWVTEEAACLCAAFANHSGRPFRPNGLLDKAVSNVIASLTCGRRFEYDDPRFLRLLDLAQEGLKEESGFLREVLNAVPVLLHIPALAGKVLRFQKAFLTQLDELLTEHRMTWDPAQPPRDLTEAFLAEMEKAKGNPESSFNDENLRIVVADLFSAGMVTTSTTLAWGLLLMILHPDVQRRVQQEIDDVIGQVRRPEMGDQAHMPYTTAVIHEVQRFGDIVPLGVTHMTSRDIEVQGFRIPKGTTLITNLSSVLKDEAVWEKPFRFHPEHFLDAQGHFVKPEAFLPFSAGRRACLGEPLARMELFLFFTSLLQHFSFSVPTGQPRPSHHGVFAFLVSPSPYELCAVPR

Take `O=C(O)CCc1c[nH]c2ccc(CC(=O)NC(c3ccccc3)c3ccccc3N3CCCCC3)cc12` (centres unmarked) [Cpd. 1, 3-{5-[({phenyl[2-(piperidin-1-yl)phenyl]methyl}carbamoyl)methyl]-1H-indol-3-yl}propanoic acid]: the inhibition (as a rule, the drop in the measured response relative to a control, in per cent) at 10 µM at CYP2D6 came to 49%. The half-inhibitory concentration (IC50) – broadly, the concentration at which inhibition is half-maximal – in series [1] is less than 1 µM.
For the compound `O=C(O)CCc1c[nH]c2ccc(CC(=O)NC(c3cccc(F)c3)c3ccccc3N3CCCCC3)cc12` (centres unmarked) [Cpd. 3, 3-[5-({[(3-fluorophenyl)[2-(piperidin-1-yl)phenyl]methyl]carbamoyl}methyl)-1H-indol-3-yl]propanoic acid], the inhibition at 10 µM at CYP2D6 was -2%. The compound also gave a half-inhibitory concentration (IC50) in series [1] of less than 1 µM.
For `Cc1ccc(C(NC(=O)Cc2ccc3[nH]cc(CCC(=O)O)c3c2)c2ccccc2)c(N2CCCC2)c1` (centres unmarked) [Cpd. 5, 3-{5-[({[4-methyl-2-(pyrrolidin-1-yl)phenyl](phenyl)methyl}carbamoyl)methyl]-1H-indol-3-yl}propanoic acid], in that order: 13.5% and less than 1 µM.
The matching figures for `CC(C)CC(NC(=O)Cc1ccc2[nH]cc(CCC(=O)O)c2c1)c1ccccc1N1CCCCC1` (centres unmarked) [Cpd. 29, 3-{5-[({3-methyl-1-[2-(piperidin-1-yl)phenyl]butyl}carbamoyl)methyl]-1H-indol-3-yl}propanoic acid]: 18.2% and less than 1 µM.
`O=C(O)CCc1c[nH]c2ccc(CC(=O)NC(c3ccccc3)c3ccc(C(F)(F)F)cc3N3CCCC3)cc12` (centres unmarked) [Cpd. 48, 3-{5-[({phenyl[2-(pyrrolidin-1-yl)-4-(trifluoromethyl)phenyl]methyl}carbamoyl)methyl]-1H-indol-3-yl}propanoic acid]: the inhibition at 10 µM at CYP2D6 was found to be 78.9%. In series [1], the IC50 was less than 1 µM.
The matching figures for `O=C(O)CCc1c[nH]c2ccc(CC(=O)NC(c3ccccc3)c3ccc(Br)cc3N3CCCC3)cc12` (centres unmarked) [Cpd. 50, 3-{5-[({[4-bromo-2-(pyrrolidin-1-yl)phenyl](phenyl)methyl}carbamoyl)methyl]-1H-indol-3-yl}propanoic acid]: 26.5% and less than 1 µM.
On to `Cc1ccc(C(NC(=O)Cc2ccc3[nH]cc(CCC(=O)O)c3c2)c2ccccc2)c(N2CCCCC2)c1` (centres unmarked) [Cpd. 77, 3-{5-[({[4-methyl-2-(piperidin-1-yl)phenyl](phenyl)methyl}carbamoyl)methyl]-1H-indol-3-yl}propanoic acid], for which the inhibition at 10 µM at CYP2D6 amounted to 6.2%. In addition, the IC50 in series [1] is less than 1 µM.
For `COc1ccc(C(NC(=O)Cc2ccc3[nH]cc(CCC(=O)O)c3c2)c2ccccc2)c(N2CCCCC2)c1` (centres unmarked) [Cpd. 111, 3-{5-[({[4-methoxy-2-(piperidin-1-yl)phenyl](phenyl)methyl}carbamoyl)methyl]-1H-indol-3-yl}propanoic acid], in that order: 7.5% and less than 1 µM.
The matching figures for `Cc1ccc(C(NC(=O)Cc2ccc3[nH]cc(CCC(=O)O)c3c2)c2ccccc2)c(N(C)C)c1` (centres unmarked) [Cpd. 192, 3-{5-[({[2-(dimethylamino)-4-methylphenyl](phenyl)methyl}carbamoyl)methyl]-1H-indol-3-yl}propanoic acid]: 4.3% and less than 1 µM.
`O=C(O)CCCc1c[nH]c2ccc(CC(=O)NC(c3ccccc3)c3ccccc3N3CCCCC3)cc12` (centres unmarked) [Cpd. 212, 4-{5-[({phenyl[2-(piperidin-1-yl)phenyl]methyl}carbamoyl)methyl]-1H-indol-3-yl}butanoic acid]: the inhibition at 10 µM on CYP2D6 was -6.3%. In series [1], this compound registered an IC50 of less than 1 µM.
